In US20260226094A1, “STEROL-BASED CATIONIC LIPIDS WITH AROMATIC HEAD GROUPS” (SANOFI, priority 2023, published 2026):

How the values were obtained:
male CD1 mice = assay: Delivery of FFL mRNA by intratracheal administration, IVIS luciferase imaging of the lung; format: in vivo, mouse; settings: lipid nanoparticles with FFL mRNA, single intratracheal administration via catheter, about 24 hours post-dose
Description: Lipid nanoparticle formulations listed in Table 1 comprising FFL mRNA, cationic lipid, DMG-PEG2000, cholesterol and DOPE were administered to male CD1 mice (6-8 weeks old) by a single intratracheal administration via Catheter® ([…]) while under anesthesia. At approximately 24 hours post-dose, the animals were dosed with luciferin at 150 mg/kg (60 mg/ml) by intraperitoneal injection at 2.5 ml/kg. After 5-15 minutes, all animals were imaged using an IVIS imaging system to measure luciferase production in the lung.

[1] = Lipid degradability by mouse lung S9 in vitro; format: in vitro ADME; settings: 2 μM lipid, 2.4 mg/ml lung S9, pH 7.4, 37° C.
Description: (§1) Lipid degradability by MOUSE/HUMAN lung S9 in vitro
(§2) Assay format—4 or 5 time points in triplicate.
(§3) • 1) Plan experiment, compounds, and reagents. • 2) Dissolve each lipid in DMSO or IPA to make 5 mM stock, then dilute by IPA to 200 μM work solution. • 3) Thaw mouse and human lung S9. • 4) Prepare pooled incubation mixture as in the reaction formulas below on ice. • 5) Aliquot 495 μL incubation mixture prepared in step #4 to each well of a 2 mL 96-well plate. • 6) Add 5 μL compound to each well to initiate the reaction. Take t0 samples (as in step #8). • 7) Cover the plate with 2 layers of breathable seals and incubate the plate on an orbital shaker at 150 rpm in a 37° C. CO2 incubator. • 8) At each time point, pipette to mix the incubation mixture 5 times, then take 70 μL of incubation mixture to a fresh plate. Store in −20° C. freezer immediately. • 9) Add 210 μL (3× volume) of the cold stop solution to each well of the sample plates collected. Mix at 600 rpm on an orbital shaker for 15 min. • 10) Centrifuge the quenched plates at 3800 rpm for 10 min at 4° C. and transfer supernatant to fresh plates. • 11) Load the supernatant on filter plates and centrifuge again at 3800 rpm for 5 min at 4° C. Collect final samples in fresh plates for LC/MS.
(§4) • 4-5 Time points (hour): e.g. 0, 4, 8, 24, 48 hr • stop solution: 1:1:1 ACN/MeOH/IPA (v/v/v) with propranolol & MC3 as internal standard. Store at 4° C.

mice = assay: Delivery of FFL mRNA by intranasal administration, IVIS luminescent imaging; format: in vivo, mouse; settings: lipid nanoparticle with FFL mRNA, dose 10 μg/Animal, 24 hours post dose
Description: Lipid nanoparticle formulation 3 listed in Table 1 comprising FFL mRNA, cationic lipid, DMG-PEG2000, cholesterol and DOPE was administered in mice via pipetting the formulations at 10 μg/Animal and 15 μl per nostril. On Day 2, 24 hours post dose (±5%), all animals undergo a luminescent imaging session using IVIS with separate ROIs on the nose and lungs. Whole body imaging are performed 10-15 minutes following D-Luciferin administration. All animals are dosed with 0.2 mL of 15 mg/mL D-luciferin solution via intraperitoneal (IP) injection. Anesthesia performed by isoflurane during the procedure and animals will be placed sternal recumbency (face-down). […]

[2] = Lipid degradability by human lung S9 in vitro; format: in vitro ADME; settings: 2 μM lipid, 2.4 mg/ml lung S9, pH 7.4, 37° C.
Description: as §1, §2, §3, §4

Row | Compound | in vivo FFL protein production (luciferase activity in the lung, FIG. 5) (male CD1 mice) | In vitro degradation Mouse lung S9 [1] | FFLuc (Avr. Rad.) (mice) | In vitro degradation Human lung S9 [2]
1 | COc1cc(C(=O)OCCCNC(=N)N)cc(OC)c1OC(=O)CCO[C@H]1CC[C@@]2(C)C(=CC[C@@H]3C2CC[C@]2(C)[C@@H]([C@H](C)CCCC(C)C)CC[C@@H]32)C1 (some centres unmarked) [Compound IV] | high levels of in vivo FFL protein production | 69.6 h | 833,279 p/s/cm^2/sr | 62.9 h
2 | COc1cc(C(=O)OCCCN(C)C)cc(OC)c1OC(=O)CCO[C@H]1CC[C@@]2(C)C(=CC[C@H]3[C@@H]4CC[C@H]([C@H](C)CCCC(C)C)[C@@]4(C)CC[C@@H]32)C1 [Compound II] | – | 39.3 h | 592,290 p/s/cm^2/sr | 38.2 h
3 | COc1cc(C(=O)OCCN(C)C)cc(OC)c1OC(=O)CCC(=O)O[C@H]1CC[C@@]2(C)C(=CC[C@H]3[C@@H]4CC[C@H]([C@H](C)CCCC(C)C)[C@@]4(C)CC[C@@H]32)C1 [Compound I] | – | 23.6 h | 421,679 p/s/cm^2/sr | 22.2 h
4 | COc1cc(C(=O)OCCNC(=N)N)cc(OC)c1OC(=O)CCO[C@H]1CC[C@@]2(C)C(=CC[C@H]3[C@@H]4CC[C@H]([C@H](C)CCCC(C)C)[C@@]4(C)CC[C@@H]32)C1 [Compound III] | high levels of in vivo FFL protein production | 50.1 h | 890,880 p/s/cm^2/sr | 39.2 h
